Test results taken from US8404707B2, “Imidazo [1, 2-a] pyrrolo [3, 2-c] pyridine compounds useful as pestivirus inhibitors” (Universite d'Auvergne Clermont 1, priority 2006, dated 2013).
In brackets after ≈: the same amount, converted by molar mass. Like-named read-outs stand apart in the source and are kept apart here. Blank lines part the entries; values can stand above or below the compound they belong to.

Columns and labels:
[1] = Determination of cytostatic effect on MDBK cells (MTS method); assay type: cell-based, Bovine; details: bovine, MDBK cells (exponentially growing), 3 days incubation, 50% cytostatic concentration
Experimental: (§1) Madin-Darbey Bovine Kidney (MDBK) cells were maintained in Dulbecco's modified Eagle medium (DMEM) supplemented with BVDV-free 5% fetal calf serum (DMEME-FCS) at 37° C. in a humidified, 5% CO2 atmosphere. BVDV-1 (strain PE515) was used to assess the antiviral activity in MDBK cells.
(§2) The effect of the drugs on exponentially growing MDBK cells was assessed as follows. Cells were seeded at a density of 5000 cell/well in 96 well plates in MEM medium (Gibco) supplemented with 10% fetal calf serum, 2 mM L-glutamine (Life Technologies) and bicarbonate (Life Technologies). Cells, were cultured for 24 hr after which serial dilutions of the test compounds were added. Cultures were then again further incubated for 3 days after which the effect on cell growth was quantified by means of the MTS method (Promega). The concentration that results in 50% inhibition of cell growth is defined as the 50% cytostatic concentration (CC50)

BVDV-1 (strain PE515) = assay: Anti-BVDV assay (protection of MDBK cell monolayer from virus-induced cytopathic effect, MTS readout); assay type: cell-based, Bovine Viral Diarrhea virus; details: for EC50: Bovine viral diarrhea virus isolates and strains, MDBK, 120 h, BVDV-1 in MDBK cells, 5 days incubation, concentration that protects 50% of the cell monolayer from virus-induced cytopathic effect; for SI: Selectivity index (ratio of CC50 to EC50): CC50 (MDBK cells) / EC50 (BVDV)
Experimental: as §1
Ninety-six-well cell culture plates were seeded with MDBK cells in DMEM-FCS so that cells reached 24 hr later confluency. Then medium was removed and serial 5-fold dilutions of the test compounds were added in a total volume of 100 μl, after which the virus inoculum (100 μl) was added to each well. […] Uninfected cells and cells receiving virus without compound were included in each assay plate. After 5 days, medium was removed and 90 μl of DMEM-FCS and 10 μl of MTS/PMS solution (Promega) was added to each well. Following a 2 hr incubation period at 37° C. the optical density of the wells was read at 498 nm in a microplate reader.

MDBK cells = assay: Determination of cytostatic effect on MDBK cells (MTS method); assay type: cell-based, Bovine; details: exponentially growing MDBK cells, 3 days incubation; 50% cytostatic concentration
Experimental: as §1, §2

- melting point: 270 to 272 °C
SMILES: CCOC(=O)c1cc2c3n(ccc-2n1)CC(CCl)=N3

- melting point: 158 to 159 °C
SMILES: CCOC(=O)n1c(-c2ccc(OC)cc2)cc2c1ccn1cc(C)nc21

- melting point: 168 °C
SMILES: COc1ccc(-c2cc3c4n(ccc-3n2)CC(C)=N4)cc1

- melting point: 162 °C
SMILES: CCCCc1cc2c3n(ccc-2n1)CC(C)=N3

- melting point: 198 to 200 °C
SMILES: CCOC(=O)c1cc2c3n(ccc-2n1)CC(c1cccc(OC)c1)=N3

SMILES: CCOC(=O)c1cc2c3n(ccc-2n1)CC(C)=N3 [Compound 7b, Ethyl 2-methylimidazo[1,2-a]pyrrolo[3,2-c]pyridine-8-carboxylate]
- CC50 at 3 days [1]: 65 µg/mL (≈ 267 µM)
- melting point: 201 to 203 °C
- EC50 (BVDV-1 (strain PE515); read-out: EC50): 0.8 µg/mL (≈ 3.29 µM)
- SI: Selectivity index (ratio of CC50 to EC50) (BVDV-1 (strain PE515)): ±81

SMILES: CCOC(=O)c1cc2c3n(ccc-2n1)CC(C(F)(F)F)=N3 [Compound 7e, Ethyl 2-trifluoromethylimidazo[1,2-a]pyrrolo[3,2-c]pyridine-8-carboxylate]
- CC50 at 3 days [1]: > 50 µg/mL
- melting point: 230 to 231 °C
- EC50 (BVDV-1 (strain PE515)): 1.5 µg/mL (≈ 5.05 µM)
- SI: Selectivity index (ratio of CC50 to EC50) (BVDV-1 (strain PE515)): ±33

SMILES: CCOC(=O)c1cc2c3n(ccc-2n1)CC(C(C)C)=N3 [Compound 7f, Ethyl 2-isopropylimidazo[1,2-a]pyrrolo[3,2-c]pyridine-8-carboxylate]
- CC50 at 3 days [1]: 22 µg/mL (≈ 81.1 µM)
- melting point: 207 to 209 °C
- EC50 (BVDV-1 (strain PE515); read-out: EC50): 0.6 µg/mL (≈ 2.21 µM)
- SI: Selectivity index (ratio of CC50 to EC50) (BVDV-1 (strain PE515)): ±36

SMILES: CCOC(=O)c1cc2c3n(ccc-2n1)CC(C(OCC)OCC)=N3 [Compound 7h, Ethyl 2-diethoxymethylimidazo[1,2-a]pyrrolo[3,2-c]pyridine-8-carboxylate]
- CC50 at 3 days [1]: 22 µg/mL (≈ 66.4 µM)
- melting point: 242 to 244 °C
- EC50 (BVDV-1 (strain PE515); read-out: EC50): 3 µg/mL (≈ 9.05 µM)
- SI: Selectivity index (ratio of CC50 to EC50) (BVDV-1 (strain PE515)): ±7

SMILES: CCOC(=O)c1cc2c3n(ccc-2n1)CC(Br)=N3 [Compound 7i, Ethyl 2-bromoimidazo[1,2-a]pyrrolo[3,2-c]pyridine-8-carboxylate]
- CC50 at 3 days [1]: > 50 µg/mL
- EC50 (BVDV-1 (strain PE515); read-out: EC50): 1.5 µg/mL (≈ 4.87 µM)
- SI: Selectivity index (ratio of CC50 to EC50) (BVDV-1 (strain PE515)): >33

SMILES: CCOC(=O)c1cc2c(ccn3cc(CN(C)C)nc23)[nH]1 [Compound 9, Ethyl 2-N,N dimethylaminomethylimidazo[1,2-a]pyrrolo[3,2-c]pyridine-8-carboxylate]
- EC50 (BVDV-1 (strain PE515)): 3 µg/mL (≈ 10.5 µM)

SMILES: CCOC(=O)c1cc2c3n(ccc-2n1)CC(CO)=N3 [Compound 11, Ethyl 2-hydroxymethylimidazo[1,2-a]pyrrolo[3,2-c]pyridine-8-carboxylate]
- CC50 at 3 days [1]: 87 µg/mL (≈ 336 µM)
- melting point: 227 to 229 °C
- EC50 (BVDV-1 (strain PE515); read-out: EC50): 9 µg/mL (≈ 34.7 µM)
- SI: Selectivity index (ratio of CC50 to EC50) (BVDV-1 (strain PE515)): ±10

SMILES: CC1=Nc2c3cc(C(=O)O)nc-3ccn2C1 [Compound 15, 2-Methylimidazo[1,2-a]pyrrolo[3,2-c]pyridine-8-carboxylic acid]
- CC50 (MDBK cells): >100 µg/mL
- CC50 at 3 days [1]: > 100 µg/mL
- EC50 (BVDV-1 (strain PE515); read-out: EC50): 0.5 µg/mL (≈ 2.32 µM)

SMILES: CCOC(=O)n1c(-c2ccc(F)cc2)cc2c1ccn1cc(C)nc21 [Compound 26b, Ethyl 8-(4-fluorophenyl)-2-methylimidazo[1,2-a]pyrrolo[3,2-c]pyridine-7-carboxylate]
- CC50 at 3 days [1]: 7.9 µg/mL (≈ 23.4 µM)
- melting point: 175 °C
- EC50 (BVDV-1 (strain PE515); read-out: EC50): 1.25 µg/mL (≈ 3.71 µM)
- SI: Selectivity index (ratio of CC50 to EC50) (BVDV-1 (strain PE515)): ±6

SMILES: CC1=Nc2c3cc(-c4ccc(F)cc4)nc-3ccn2C1 [Compound 27b, 8-(4-fluorophenyl)-2-methylimidazo[1,2-a]pyrrolo[3,2-c]pyridine]
- CC50 at 3 days [1]: 47.5 µg/mL (≈ 179 µM)
- EC50 (BVDV-1 (strain PE515); read-out: EC50): 1.27 µg/mL (≈ 4.79 µM)
- SI: Selectivity index (ratio of CC50 to EC50) (BVDV-1 (strain PE515)): ±37
